Laboratory results from doi:10.1101/2023.11.24.568596v1 (biorxiv, 2023).

Columns and labels:
Conditions in all cases: binder
NEK1 = molecular target: T1, NEK1 (Homo sapiens, UniProt Q96PY6)
T1 sequence (Q96PY6 1-1258): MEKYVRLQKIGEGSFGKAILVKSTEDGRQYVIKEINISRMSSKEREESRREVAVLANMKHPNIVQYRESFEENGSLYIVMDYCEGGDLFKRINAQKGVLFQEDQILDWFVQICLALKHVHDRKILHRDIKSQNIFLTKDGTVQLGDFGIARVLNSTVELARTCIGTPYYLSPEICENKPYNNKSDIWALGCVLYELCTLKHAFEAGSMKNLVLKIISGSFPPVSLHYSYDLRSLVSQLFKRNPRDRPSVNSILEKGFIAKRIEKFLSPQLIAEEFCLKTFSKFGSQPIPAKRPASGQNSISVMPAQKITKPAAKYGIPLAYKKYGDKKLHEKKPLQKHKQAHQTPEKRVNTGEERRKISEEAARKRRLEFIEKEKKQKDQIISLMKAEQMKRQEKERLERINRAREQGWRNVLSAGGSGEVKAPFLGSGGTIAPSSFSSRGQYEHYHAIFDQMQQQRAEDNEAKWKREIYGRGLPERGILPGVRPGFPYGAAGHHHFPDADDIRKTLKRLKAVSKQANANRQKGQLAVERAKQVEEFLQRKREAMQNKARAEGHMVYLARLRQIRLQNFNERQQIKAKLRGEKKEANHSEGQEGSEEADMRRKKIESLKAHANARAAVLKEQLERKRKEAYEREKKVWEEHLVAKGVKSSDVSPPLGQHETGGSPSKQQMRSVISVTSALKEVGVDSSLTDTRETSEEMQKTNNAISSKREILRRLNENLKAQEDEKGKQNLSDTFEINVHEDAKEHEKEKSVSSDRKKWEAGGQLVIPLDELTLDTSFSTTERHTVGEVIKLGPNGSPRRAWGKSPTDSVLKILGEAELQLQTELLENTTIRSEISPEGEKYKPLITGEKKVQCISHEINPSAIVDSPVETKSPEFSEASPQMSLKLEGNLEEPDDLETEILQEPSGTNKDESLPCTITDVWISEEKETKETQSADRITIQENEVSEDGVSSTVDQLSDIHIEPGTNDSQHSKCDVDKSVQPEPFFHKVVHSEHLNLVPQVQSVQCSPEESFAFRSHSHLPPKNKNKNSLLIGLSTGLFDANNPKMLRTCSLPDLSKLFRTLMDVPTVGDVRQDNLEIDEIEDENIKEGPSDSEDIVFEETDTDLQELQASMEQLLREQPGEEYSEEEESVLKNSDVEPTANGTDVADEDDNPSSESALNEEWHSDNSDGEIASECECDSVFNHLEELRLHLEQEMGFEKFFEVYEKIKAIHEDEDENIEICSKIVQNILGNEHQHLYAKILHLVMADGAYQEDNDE

PAK1 = PAK1 (Homo sapiens, UniProt Q13153)
PAK1, sequence (Q13153 whole entry): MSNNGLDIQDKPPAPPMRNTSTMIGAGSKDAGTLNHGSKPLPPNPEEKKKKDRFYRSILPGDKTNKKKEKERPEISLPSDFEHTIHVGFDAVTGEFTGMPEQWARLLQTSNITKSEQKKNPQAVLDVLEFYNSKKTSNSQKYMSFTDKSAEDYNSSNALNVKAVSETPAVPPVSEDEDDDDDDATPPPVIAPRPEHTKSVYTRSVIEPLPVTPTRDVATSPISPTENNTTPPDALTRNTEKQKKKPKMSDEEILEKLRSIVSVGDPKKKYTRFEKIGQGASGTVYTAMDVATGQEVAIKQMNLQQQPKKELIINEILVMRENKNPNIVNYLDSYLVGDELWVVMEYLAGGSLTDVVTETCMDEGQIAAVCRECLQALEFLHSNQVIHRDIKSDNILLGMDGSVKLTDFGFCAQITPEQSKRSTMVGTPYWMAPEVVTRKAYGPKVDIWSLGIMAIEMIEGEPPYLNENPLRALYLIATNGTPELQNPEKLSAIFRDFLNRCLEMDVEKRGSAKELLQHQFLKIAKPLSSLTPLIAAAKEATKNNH

AurA = molecular target: T2, AurA (Homo sapiens, UniProt O14965)
T2 sequence (O14965 1-403): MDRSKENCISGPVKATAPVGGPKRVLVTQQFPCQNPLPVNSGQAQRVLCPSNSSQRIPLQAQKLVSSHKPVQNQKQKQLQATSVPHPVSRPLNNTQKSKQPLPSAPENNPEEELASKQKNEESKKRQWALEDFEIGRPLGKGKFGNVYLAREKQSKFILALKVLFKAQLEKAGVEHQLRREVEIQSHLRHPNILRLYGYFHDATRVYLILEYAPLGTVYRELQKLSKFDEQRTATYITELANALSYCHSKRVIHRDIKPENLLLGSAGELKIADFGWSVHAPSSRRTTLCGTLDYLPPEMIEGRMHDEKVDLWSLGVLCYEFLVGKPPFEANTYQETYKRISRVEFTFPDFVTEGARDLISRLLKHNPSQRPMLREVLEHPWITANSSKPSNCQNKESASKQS

DCAMKL1 = molecular target: T3, DCAMKL1 (Homo sapiens, UniProt O15075)
T3 sequence (O15075 1-740): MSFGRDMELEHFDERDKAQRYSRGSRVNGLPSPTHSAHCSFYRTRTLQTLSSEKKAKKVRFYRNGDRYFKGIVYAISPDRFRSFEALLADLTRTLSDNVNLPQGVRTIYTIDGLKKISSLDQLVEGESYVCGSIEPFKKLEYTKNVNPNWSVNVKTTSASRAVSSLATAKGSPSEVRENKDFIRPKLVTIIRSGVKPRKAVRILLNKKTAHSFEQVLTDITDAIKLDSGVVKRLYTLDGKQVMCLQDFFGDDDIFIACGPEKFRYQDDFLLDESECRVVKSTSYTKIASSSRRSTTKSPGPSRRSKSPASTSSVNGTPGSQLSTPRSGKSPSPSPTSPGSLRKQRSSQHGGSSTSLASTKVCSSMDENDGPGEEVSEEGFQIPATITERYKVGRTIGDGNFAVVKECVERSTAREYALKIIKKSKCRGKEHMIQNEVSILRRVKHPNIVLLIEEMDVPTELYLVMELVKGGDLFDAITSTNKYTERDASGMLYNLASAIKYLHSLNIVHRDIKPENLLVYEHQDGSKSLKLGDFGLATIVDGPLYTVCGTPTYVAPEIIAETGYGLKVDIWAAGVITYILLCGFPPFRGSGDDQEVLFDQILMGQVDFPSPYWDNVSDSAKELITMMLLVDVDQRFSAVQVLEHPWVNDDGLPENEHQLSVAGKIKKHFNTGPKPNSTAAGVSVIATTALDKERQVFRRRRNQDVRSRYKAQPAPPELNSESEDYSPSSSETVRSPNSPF

FLT1 = FLT1 (Homo sapiens, UniProt P17948)
FLT1, sequence (P17948 whole entry): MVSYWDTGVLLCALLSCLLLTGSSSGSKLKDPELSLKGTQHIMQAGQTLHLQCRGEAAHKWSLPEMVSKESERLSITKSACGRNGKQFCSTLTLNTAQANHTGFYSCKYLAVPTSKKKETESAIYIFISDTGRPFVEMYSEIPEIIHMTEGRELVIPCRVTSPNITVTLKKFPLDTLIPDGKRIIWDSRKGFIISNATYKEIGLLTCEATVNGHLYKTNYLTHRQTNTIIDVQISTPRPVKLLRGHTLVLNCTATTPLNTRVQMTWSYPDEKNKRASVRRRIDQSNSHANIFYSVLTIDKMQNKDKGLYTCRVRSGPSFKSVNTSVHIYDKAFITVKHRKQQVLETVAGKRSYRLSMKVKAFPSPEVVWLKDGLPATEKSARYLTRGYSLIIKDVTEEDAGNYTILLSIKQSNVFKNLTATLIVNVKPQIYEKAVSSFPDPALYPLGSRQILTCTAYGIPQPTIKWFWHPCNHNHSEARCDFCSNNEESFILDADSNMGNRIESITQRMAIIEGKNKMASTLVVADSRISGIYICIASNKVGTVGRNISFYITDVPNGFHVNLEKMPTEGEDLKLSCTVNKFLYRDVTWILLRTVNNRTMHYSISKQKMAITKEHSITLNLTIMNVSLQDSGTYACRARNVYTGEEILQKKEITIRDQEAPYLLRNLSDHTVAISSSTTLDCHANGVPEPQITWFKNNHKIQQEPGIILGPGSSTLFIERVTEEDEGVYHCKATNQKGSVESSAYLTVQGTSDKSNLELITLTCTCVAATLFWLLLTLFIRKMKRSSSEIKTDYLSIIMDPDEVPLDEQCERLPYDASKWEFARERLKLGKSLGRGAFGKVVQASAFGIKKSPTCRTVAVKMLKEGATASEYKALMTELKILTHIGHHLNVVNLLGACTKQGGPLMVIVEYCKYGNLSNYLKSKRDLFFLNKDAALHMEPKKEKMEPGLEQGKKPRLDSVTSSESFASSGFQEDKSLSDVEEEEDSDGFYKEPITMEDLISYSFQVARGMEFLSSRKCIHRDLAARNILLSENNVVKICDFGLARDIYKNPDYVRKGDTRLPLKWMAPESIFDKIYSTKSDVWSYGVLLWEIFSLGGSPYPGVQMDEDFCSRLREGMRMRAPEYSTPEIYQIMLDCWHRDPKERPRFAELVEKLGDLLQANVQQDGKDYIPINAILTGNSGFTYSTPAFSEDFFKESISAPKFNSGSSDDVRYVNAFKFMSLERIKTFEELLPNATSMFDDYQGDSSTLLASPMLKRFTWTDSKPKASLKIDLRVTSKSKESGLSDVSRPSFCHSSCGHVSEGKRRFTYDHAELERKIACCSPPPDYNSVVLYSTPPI

BRAF = BRAF (Homo sapiens, UniProt P15056)
BRAF, sequence (P15056 whole entry): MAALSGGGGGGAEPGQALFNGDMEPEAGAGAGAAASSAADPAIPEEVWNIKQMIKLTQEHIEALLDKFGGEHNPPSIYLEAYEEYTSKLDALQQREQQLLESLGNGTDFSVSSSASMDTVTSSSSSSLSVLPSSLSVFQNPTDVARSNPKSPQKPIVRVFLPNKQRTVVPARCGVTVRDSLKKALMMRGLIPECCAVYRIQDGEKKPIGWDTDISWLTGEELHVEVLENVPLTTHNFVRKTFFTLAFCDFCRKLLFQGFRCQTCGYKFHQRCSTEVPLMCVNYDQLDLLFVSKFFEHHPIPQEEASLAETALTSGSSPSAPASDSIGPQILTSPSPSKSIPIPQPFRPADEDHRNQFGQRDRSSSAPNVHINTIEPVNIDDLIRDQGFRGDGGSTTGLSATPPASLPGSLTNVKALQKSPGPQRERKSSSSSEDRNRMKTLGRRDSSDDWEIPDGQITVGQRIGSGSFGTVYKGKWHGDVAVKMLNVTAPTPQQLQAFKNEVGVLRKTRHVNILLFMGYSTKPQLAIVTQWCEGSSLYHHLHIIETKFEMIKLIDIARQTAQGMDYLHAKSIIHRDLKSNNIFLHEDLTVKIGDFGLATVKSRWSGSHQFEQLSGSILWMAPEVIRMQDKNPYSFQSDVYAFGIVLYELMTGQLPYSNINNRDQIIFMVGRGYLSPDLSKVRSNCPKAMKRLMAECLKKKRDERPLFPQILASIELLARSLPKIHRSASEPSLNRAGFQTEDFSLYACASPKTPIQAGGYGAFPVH

CNc1ncc2cc(-c3ccc(-c4cccc(C)n4)cc3Cl)c(=O)n(CCCCN)c2n1 [compound 20, MRLW5]
ΔTm MRLW5 (20) (NEK1): -1.9 °C
ΔTm MRLW5 (20) (PAK1): 7.5 °C
ΔTm MRLW5 (20) (AurA): 11.8 °C
ΔTm MRLW5 (20) (DCAMKL1): 1.0 °C
ΔTm MRLW5 (20) (FLT1): 2.2 °C
ΔTm MRLW5 (20) (BRAF): 4.1 °C

CNc1ncc2cc(-c3ccc(-c4cccc(C)n4)cc3Cl)c(=O)n(CCC3CCNCC3)c2n1 [compound 22, 6-(2-Chloro-4-(6-methylpyridin-2-yl)phenyl)-2-(methylamino)-8-(2-(piperidin-4-yl)ethyl)pyrido[2,3-d]pyrimidin-7(8H)-one]
ΔTm 22 (NEK1): -2.0 °C
ΔTm 22 (PAK1): 8.6 °C
ΔTm 22 (AurA): 11.4 °C
ΔTm 22 (DCAMKL1): 0.7 °C
ΔTm 22 (FLT1): 2.6 °C
ΔTm 22 (BRAF): 6.3 °C

CNc1ncc2cc(-c3ccc(-c4cccc(C)n4)cc3Cl)c(=O)n(C[C@H]3CC[C@H](N)CC3)c2n1 [compound 23, 23]
ΔTm 23 (NEK1): -2.7 °C
ΔTm 23 (PAK1): 8.9 °C
ΔTm 23 (AurA): 13.1 °C
ΔTm 23 (DCAMKL1): 4.6 °C
ΔTm 23 (FLT1): 4.9 °C
ΔTm 23 (BRAF): 6.2 °C

Cc1cccc(-c2ccc(-c3cc4cnc(NC(CO)CO)nc4n(CCCCN)c3=O)c(Cl)c2)n1 [compound 24, 8-(4-Aminobutyl)-6-(2-chloro-4-(6-methylpyridin-2-yl)phenyl)-2-((1,3-dihydroxypropan-2-yl)amino)pyrido[2,3-d]pyrimidin-7(8H)-one]
ΔTm MR24 (24) (NEK1): 0.0 °C
ΔTm MR24 (24) (PAK1): 6.9 °C
ΔTm MR24 (24) (AurA): -1.7 °C
ΔTm MR24 (24) (DCAMKL1): -2.0 °C
ΔTm MR24 (24) (FLT1): 1.0 °C
ΔTm MR24 (24) (BRAF): 1.2 °C

Cc1cccc(-c2ccc(-c3cc4cnc(NCCCc5ccc(N)cc5)nc4n(CCCCN)c3=O)c(Cl)c2)n1 [compound 25, 8-(4-Aminobutyl)-2-((3-(4-aminophenyl)propyl)amino)-6-(2-chloro-4-(6-methylpyridin-2-yl)phenyl)pyrido[2,3-d]pyrimidin-7(8H)-one]
ΔTm 25 (NEK1): -1.2 °C
ΔTm 25 (PAK1): 8.3 °C
ΔTm 25 (AurA): 1.8 °C
ΔTm 25 (DCAMKL1): 0.1 °C
ΔTm 25 (FLT1): 3.5 °C
ΔTm 25 (BRAF): 5.2 °C

Cc1cccc(-c2ccc(-c3cc4cnc(NCCCN5CCOCC5)nc4n(CCCCN)c3=O)c(Cl)c2)n1 [compound 26, MR26]
ΔTm MR26 (26) (NEK1): 0.1 °C
ΔTm MR26 (26) (PAK1): 5.7 °C
ΔTm MR26 (26) (AurA): -0.9 °C
ΔTm MR26 (26) (DCAMKL1): -2.0 °C
ΔTm MR26 (26) (FLT1): 2.7 °C
ΔTm MR26 (26) (BRAF): 1.7 °C
